pKi: −log10 of the molar value. Several values for one entry are separate records, joined by “and”; a condition that tells them apart may be missing. Equal entries are not always repeated. Where two headings read alike, the source gives them in different places.
Legend:
[1] = target: T1, human recombinant adrenergic α2B receptor (Homo sapiens, UniProt P18089); assay: Radioligand binding, adrenergic α2B ([3H]Rauwolscine); settings: for inhibition at 0.03 µM: read-out: Percentage inhibition of ligand binding, Adrenergic α2B (0.03 μM), compound at 0.03 μM
T1 construct: expressed in transfected cells; host or cells: CHO-K1
T1 sequence (P18089 1-450): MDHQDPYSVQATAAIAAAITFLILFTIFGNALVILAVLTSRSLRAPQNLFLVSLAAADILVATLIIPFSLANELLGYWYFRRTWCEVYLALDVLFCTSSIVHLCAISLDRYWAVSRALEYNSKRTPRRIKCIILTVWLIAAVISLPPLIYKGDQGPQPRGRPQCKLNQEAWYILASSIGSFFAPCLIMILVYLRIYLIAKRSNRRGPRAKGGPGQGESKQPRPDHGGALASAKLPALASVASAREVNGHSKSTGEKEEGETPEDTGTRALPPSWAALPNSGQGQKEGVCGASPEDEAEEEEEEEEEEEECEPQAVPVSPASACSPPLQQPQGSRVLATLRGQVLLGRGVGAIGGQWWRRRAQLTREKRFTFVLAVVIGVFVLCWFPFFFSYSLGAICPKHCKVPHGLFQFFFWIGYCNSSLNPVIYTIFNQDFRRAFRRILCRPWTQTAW
Procedure, shortened: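 Values are percent inhibition of specific radioligand binding. The receptor, expressed in CHO-K1 cells, was exposed to 2.5 nM [3H]Rauwolscine at 25° C for 60 min, with 10 μM Prazosin marking non-specific binding.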

[2] = target: T2, human recombinant adrenergic α2A receptor (Homo sapiens, UniProt P08913); assay: Radioligand binding, adrenergic α2A ([3H]MK-912)
T2 construct: expressed in transfected cells; host or cells: insect Sf9 cells
T2 sequence (P08913 1-465): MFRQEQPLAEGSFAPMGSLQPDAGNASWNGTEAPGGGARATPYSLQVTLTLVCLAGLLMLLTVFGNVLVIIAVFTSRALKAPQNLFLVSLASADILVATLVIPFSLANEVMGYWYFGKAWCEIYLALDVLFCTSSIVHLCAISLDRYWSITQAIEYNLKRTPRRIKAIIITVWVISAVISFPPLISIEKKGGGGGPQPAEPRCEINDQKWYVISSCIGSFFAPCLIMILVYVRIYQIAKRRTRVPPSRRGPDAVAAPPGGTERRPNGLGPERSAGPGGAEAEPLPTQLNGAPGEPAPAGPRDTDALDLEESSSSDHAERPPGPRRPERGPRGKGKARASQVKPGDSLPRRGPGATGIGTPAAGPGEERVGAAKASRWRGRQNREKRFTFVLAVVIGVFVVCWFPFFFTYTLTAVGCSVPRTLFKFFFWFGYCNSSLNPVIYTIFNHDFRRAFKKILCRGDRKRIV
Procedure, shortened: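 In 50 mM Tris-HCl (pH 7.4) containing 12.5 mM MgCl2 and 2 mM EDTA, Sf9-expressed receptor was exposed to test compound plus 1 nM [3H]MK-912 at 25 °C for 60 min. Specific binding, corrected using 10 μM WB-4101, was quantified by filtration and counting and expressed as percent inhibition.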

[3] = target: T3, rat adrenergic α1B receptor (Rattus norvegicus, UniProt P15823); assay: Radioligand binding, adrenergic α1B ([3H]Prazosin); settings: for inhibition at 0.03 µM: read-out: Percentage inhibition of ligand binding, Adrenergic α1B (0.03 μM), compound at 0.03 μM
T3 construct: rat adrenergic α1B receptor obtained from Wistar Rat liver; from tissue; host or cells: Wistar rat liver
T3 sequence (P15823 1-515): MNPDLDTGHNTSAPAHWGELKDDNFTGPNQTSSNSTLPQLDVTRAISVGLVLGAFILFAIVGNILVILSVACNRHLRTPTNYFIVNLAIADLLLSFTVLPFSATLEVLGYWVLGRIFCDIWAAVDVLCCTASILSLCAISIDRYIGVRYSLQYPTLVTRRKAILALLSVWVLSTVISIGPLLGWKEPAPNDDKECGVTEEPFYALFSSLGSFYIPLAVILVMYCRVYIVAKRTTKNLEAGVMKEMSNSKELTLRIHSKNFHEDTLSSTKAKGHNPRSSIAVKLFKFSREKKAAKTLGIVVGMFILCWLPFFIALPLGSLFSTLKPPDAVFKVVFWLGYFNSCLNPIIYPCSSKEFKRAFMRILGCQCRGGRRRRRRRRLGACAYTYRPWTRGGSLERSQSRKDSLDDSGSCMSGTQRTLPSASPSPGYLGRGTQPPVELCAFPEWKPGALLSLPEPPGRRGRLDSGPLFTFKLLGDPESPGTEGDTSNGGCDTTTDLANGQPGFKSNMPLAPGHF
Procedure, shortened: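 Filter binding with Wistar rat liver α1B preparation: test compound plus 0.25 nM [3H]prazosin, 1 h at 25° C in modified Tris-HCl buffer pH 7.4.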

[4] = target: T4, human recombinant adrenergic α1D receptor (Homo sapiens, UniProt P25100); assay: Radioligand binding, adrenergic α1D ([3H]Prazosin); settings: for inhibition at 0.03 µM: read-out: Percentage inhibition of ligand binding, Adrenergic α1D (0.03 μM), compound at 0.03 μM
T4 construct: expressed in transfected cells; host or cells: HEK-293
T4 sequence (P25100 1-572): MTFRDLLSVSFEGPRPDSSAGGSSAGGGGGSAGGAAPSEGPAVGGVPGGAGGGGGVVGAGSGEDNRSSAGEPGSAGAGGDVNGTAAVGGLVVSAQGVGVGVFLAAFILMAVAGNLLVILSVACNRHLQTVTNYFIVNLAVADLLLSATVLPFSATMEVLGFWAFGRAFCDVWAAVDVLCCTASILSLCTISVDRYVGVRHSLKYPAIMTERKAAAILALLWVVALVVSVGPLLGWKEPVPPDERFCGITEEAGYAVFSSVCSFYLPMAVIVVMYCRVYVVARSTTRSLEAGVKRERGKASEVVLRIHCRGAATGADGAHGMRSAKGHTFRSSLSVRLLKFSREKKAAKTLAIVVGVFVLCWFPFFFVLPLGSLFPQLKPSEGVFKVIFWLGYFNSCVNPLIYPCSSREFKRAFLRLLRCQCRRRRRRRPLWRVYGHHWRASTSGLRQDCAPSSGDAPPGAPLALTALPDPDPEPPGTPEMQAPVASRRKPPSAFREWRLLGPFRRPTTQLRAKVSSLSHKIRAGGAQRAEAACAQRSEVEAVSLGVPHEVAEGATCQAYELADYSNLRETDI
Experimental: Compounds were incubated with 0.6 nM [3H]Prazosin for 60 min at 25° C. Non-specific binding was estimated in the presence of 10 μM phentolamine. Receptor proteins were filtered and washed, the filters were then counted to determine [3H]Prazosin specifically bound. […] Biochemical assay results are presented as the percent inhibition of specific binding in Table B1.

[5] = read-out: Percentage inhibition of ligand binding, Adrenergic α2B (0.1 μM), compound at 0.1 μM, [3H]Rauwolscine, repeat datapoints each shown
[6] = read-out: Percentage inhibition of ligand binding, Adrenergic α2A (0.1 μM), compound at 0.1 μM, [3H]MK-912, repeat datapoints each shown
[7] = [3H]Prazosin, repeat datapoints each shown
[8] = [3H]Rauwolscine, repeat datapoints each shown
[9] = read-out: Percentage inhibition of ligand binding, Adrenergic α1B (0.1 μM), compound at 0.1 μM, [3H]Prazosin, repeat datapoints each shown
[10] = read-out: Percentage inhibition of ligand binding, Adrenergic α1D (0.1 μM), compound at 0.1 μM, [3H]Prazosin, repeat datapoints each shown

| SMILES | inhibition at 0.1 µM [1, 5] | inhibition at 0.1 µM [2, 6] | inhibition at 0.1 µM [3, 9] | inhibition at 0.1 µM [4, 10] | further results |
| --- | --- | --- | --- | --- | --- |
| COc1ccc(CCn2c3c(c4cc(C)ccc42)CN(C)CC3)cc1 [compound 218] | – | – | – | – | inhibition at 0.03 µM [1, 8]: 110%; inhibition at 0.03 µM ([2]; read-out: Percentage inhibition of ligand binding, Adrenergic α2A (0.03 μM), compound at 0.03 μM, [3H]MK-912, repeat datapoints each shown): 85%; inhibition at 0.03 µM [3, 7]: 79%; inhibition at 0.03 µM [4, 7]: 60% |
| CN1CCc2c(n(CC(C)(O)c3ccc(F)cc3)c3ccc(Cl)cc23)CC1 (centres unmarked) [compound 221] | 80% | 56% | 65% | 16% | – |
| C/C(=C\n1c2c(c3cc(C)ccc31)C1CCC(C2)N1C)c1ccc(Cl)cc1Cl (centres unmarked) [compound 225] | 80% | 75% | 27% | 12% | – |
| C/C(=C/n1c2c(c3cc(C)ccc31)CCN(C)CC2)c1ccc(Cl)cc1Cl [compound 226] | 83% | 85% | 88% | 48% | – |
| C/C(=C\n1c2c(c3cc(C)ccc31)CCN(C)CC2)c1ccc(Cl)cc1Cl [compound 227] | 98% | 66% | 21% | -2% | – |
| C/C(=C/n1c2c(c3cc(Cl)ccc31)CCN(C)CC2)c1ccc(Cl)cc1Cl [compound 228] | 42% | 77% | 64% | 19% | – |
| C/C(=C\n1c2c(c3cc(Cl)ccc31)CCN(C)CC2)c1ccc(Cl)cc1Cl [compound 229] | 90% | 53% | 17% | 8% | – |
| C/C(=C/n1c2c(c3cc(C)ccc31)CCN(C)CC2)c1ccccc1F [compound 230] | 93% | 87% | 94% | 58% | – |
| C/C(=C\n1c2c(c3cc(C)ccc31)C1CCC(C2)N1C)c1ccccc1F (centres unmarked) [compound 231] | 87% | 65% | 48% | 26% | – |
| C/C(=C\n1c2c(c3cc(Cl)ccc31)CCN(C)CC2)c1ccccc1F [compound 233] | 103% | 80% | 73% | 28% | – |
| C/C(=C\n1c2c(c3cc(Cl)ccc31)CCN(C)CC2)c1ccccc1Cl [compound 235] | 96% | 80% | 48% | 11% | – |
| C/C(=C\n1c2c(c3cc(C)ccc31)CCN(C)CC2)c1ccc(Cl)c(Cl)c1 [compound 238] | 98% | 94% | 67% | 25% | – |
| COc1ccc(C#Cn2c3c(c4cc(Cl)ccc42)CCN(C)CC3)cc1F [compound 242] | – | – | – | – | inhibition at 0.1 µM ([1]; 0.1 μM compound, read-out: Percentage inhibition of ligand binding, Adrenergic α2B): 98%; inhibition at 0.1 µM ([2]; 0.1 μM compound, read-out: Percentage inhibition of ligand binding, Adrenergic α2A): 50%; inhibition at 0.1 µM ([3]; 0.1 μM compound, read-out: Percentage inhibition of ligand binding, Adrenergic α1B): 53%; inhibition at 0.1 µM ([4]; 0.1 μM compound, read-out: Percentage inhibition of ligand binding, Adrenergic α1D): 37% |

Further lines, with some results ahead:

| inhibition at 0.1 µM [1, 5] | inhibition at 0.1 µM [2, 6] | inhibition at 0.1 µM [3, 9] | inhibition at 0.1 µM [4, 10] | SMILES | further results |
| --- | --- | --- | --- | --- | --- |
| 102% | 86% | – | – | Cc1ccc2c(c1)c1c(n2CCc2ccc(F)cc2)CCN(C)C1 [compound 206] | pKi [2]: 8.95 and 8.17; inhibition at 0.03 µM [3, 7]: 46%; inhibition at 0.03 µM [4, 7]: 42% |
| 106% | 90% | – | – | CN1CCc2c(c3cc(Cl)ccc3n2CCc2ccccc2)C1 [compound 207] | pKi [2]: 8.94; inhibition at 0.03 µM [3, 7]: 49%; inhibition at 0.03 µM [4, 7]: 39% |
| 97% | 101% | – | – | Cc1ccc(CCn2c3c(c4cc(Cl)ccc42)CN(C)CC3)cc1 [compound 208] | inhibition at 0.03 µM [3, 7]: 60%; inhibition at 0.03 µM [4, 7]: 41% |
| – | 98% | – | – | CN1CCc2c(c3cc(Cl)ccc3n2CCc2ccc(Cl)cc2)C1 [compound 213] | Percentage inhibition of ligand binding, Adrenergic α2B (0.1 μM) ([1]; compound at 0.1 μM, [3H]Rauwolscine, repeat datapoints each shown, 0.1 µM): 68% and 97%; pKi ([1]; read-out: Ki α2B): 7.58; inhibition at 0.03 µM [1, 8]: 26%; inhibition at 0.03 µM [3, 7]: 53%; inhibition at 0.03 µM [4, 7]: 53% |
| 104% | 96% | 95% | 101% | COc1ccc(/C(C)=C/n2c3c(c4cc(C)ccc42)CCN(C)CC3)c(F)c1 [compound 222] | – |
| 69% | 52% | 70% | 26% | C/C(=C\n1c2c(c3cc(C)ccc31)CCN(C)C2)c1ccc(Cl)cc1 [compound 224] | – |
| 102% | 87% | 87% | 43% | C/C(=C\n1c2c(c3cc(C)ccc31)CCN(C)CC2)c1ccccc1F [compound 232] | – |
| 98% | 99% | 94% | 85% | C/C(=C/n1c2c(c3cc(C)ccc31)CN(C)CC2)c1cccc(F)c1 [compound 236] | – |
| 99% | 98% | 80% | 52% | C/C(=C\n1c2c(c3cc(C)ccc31)CN(C)CC2)c1cccc(F)c1 [compound 237] | – |
